Experimental data as given in patent publication US20190240292A1, “METHODS OF ADMINISTERING HEPCIDIN” (priority 2016, published 2019).

Key:
[1] = Expanded acute study (NOAEL), single subcutaneous dose of hepcidin in dogs (Example 4); format: in vivo; settings: for dose at which mixed cell infiltration in the administration site was found (microscopic): males and females
Procedure: Increased thickness in the administration site was observed on Day 4 at 50 mg/kg and on Day 15 at ≥25 mg/kg. Microscopic findings on Day 4 consisted of mixed cell infiltration in the administration site in males and females at ≥25 mg/kg, while on Day 15, microscopic findings at the administration site included mixed cell infiltration in males and females at ≥5 mg/kg, fibrosis in males at ≥25 mg/kg and in females at ≥5 mg/kg, and cystic space in males at 50 mg/kg and in females at ≥25 mg/kg.

[2] = Expanded acute study (NOAEL), hepcidin SC in Sprague Dawley rats (Example 4)
Procedure: A study was designed to evaluate doses of 5, 25, and 50 mg/kg of hepcidin (human equivalent dose of 0.8, 4, 8 mg/kg, respectively), delivered SC to Sprague Dawley rats (n=9/sex/group).

[3] = tested on: serum iron concentration; assay: Serum iron levels in patients after hepcidin (Example 7); format: in vivo, human
Procedure: Serum iron levels were measured in six patients with sickle cell disease patients and hereditary hemochromatosis patients post administration of hepcidin. Serum iron levels were measured prior to hepcidin administration (baseline) as well as post hepcidin administration at 2 hours, 4 hours, 8 hours, 24 hours, 48 hours, and […]. Patients were divided into two cohorts, cohort 1 was administered 1 mg of hepcidin and cohort 2 was administered 5 mg of hepcidin. Cohort 1 comprised sickle cell patients 1001 and 1002 as well as hereditary hemochromatosis patient 1003, while cohort 2 comprised hereditary hemochromatosis patients 2001, 2002, and 2004. Percent change of serum iron concentration for individual patients and average percent changes for both cohorts are shown in FIGS. 6 and 7. On average, hepcidin administration decreased serum iron concentration over an 8 day period by 35-40% in both cohorts.

[4] = based on animal data
[5] = tested on: transferrin saturation (TSAT); assay: Transferrin saturation (TSAT) in patients after hepcidin (Example 6); format: in vivo, human; settings: for Transferrin saturation - percent change from baseline: eight days post administration
Procedure: Transferrin saturation (TSAT) was measured in patients described in Example 1. TSAT indicates the percent of iron-binding sites of transferrin that are occupied by iron, making TSAT an important tool in diagnosis and monitoring of blood disorders and disease. A one milligram bolus of hepcidin was administered to sickle cell disease patients 1001 and 1002 and hereditary hemochromatosis patient 1003, while patients 2001 and 2002 were administered 5 mg of hepcidin each. TSAT levels were measured eight days post hepcidin administration.

[6] = tested on: serum iron levels; assay: Subcutaneous hepcidin 1, 5, 10, 50 mg, effect on serum iron levels in normal rats (Example 3); format: in vivo
Procedure: A study was designed to evaluate doses of 1, 5, 10, and 50 mg of hepcidin delivered subcutaneously and their effect on serum iron levels in normal rats (n=7/group). […] Tmax and Cmax were reached between 1 and 2 hours post dose for all dose groups, but the uptake between the high and mid dose were very similar at these time points. […] In the 5 mg dose, serum iron levels returned to pre-dose levels at 48 hours post dose.

[7] = tested on: serum ferritin; assay: Serum ferritin in sickle cell disease and hereditary hemochromatosis patients after hepcidin (Example 5); format: in vivo, human; settings: 8 days post administration
Procedure: Hepcidin administration lowered ferritin blood levels in sickle cell patients with high baseline ferritin. A 1 milligram bolus of hepcidin was administered subcutaneously to two male patients with sickle cell disease (patients 1001 and 1002). Serum ferritin concentrations were measured at baseline as well as eight days post administration of hepcidin. Ferritin blood levels were lower 8 days post hepcidin administration in both patients (FIG. 1). Percent changes in ferritin blood levels for patients 1001 and 1002 were −45% and −61%, respectively (FIG. 3).
Hepcidin was administered to three hereditary hemochromatosis patients with normal baseline serum ferritin concentrations. Hereditary hemochromatosis patient 1003 was administered 1 mg of hepcidin, while two other patients (2001 and 2002) were administered 5 mg of hepcidin. Ferritin blood levels were measured in all patients eight days post hepcidin administration (FIG. 2). Percent change in ferritin blood levels among patients 1003, 2001, and 2002 were 25%, −19%, and 18%, respectively (FIG. 3).

[8] = tested on: serum iron levels; assay: Subcutaneous hepcidin, effect on serum iron levels in mice (Example 1); format: in vivo; settings: 50 μg subcutaneous, p<0.05
Excerpt: A study was designed to evaluate the effect of subcutaneous doses of hepcidin on serum iron levels in mice (n=6-7/group).

[9] = tested on: serum iron levels; assay: Subcutaneous hepcidin 50, 100, 200 μg, effect on serum iron levels in mice (Example 2); format: in vivo; settings: for serum iron levels compared to vehicle: p<0.01
Procedure: A study was designed to evaluate doses of 50, 100, and 200 μg of hepcidin delivered subcutaneously and their effect on serum iron levels in mice (n=7/group). […] Conversely, 50 μg and 100 μg doses were elevated (p<0.01) compared to the vehicle at 24 hours post dose. The elevated levels of serum iron could be due to the system's reaction to the clearance of hepcidin. […] Mortality was likely related to the stress of the blood collection. Serum iron levels normalized 72 hours post dose.

[10] = Sprague Dawley rats, 5, 25 and 50 mg/kg SC
[11] = patient 1001, sickle cell disease, 1 mg
[12] = patient 1002, sickle cell disease, 1 mg
[13] = patient 1003, hereditary hemochromatosis, 1 mg
[14] = patient 2001, hereditary hemochromatosis, 5 mg
[15] = patient 2002, hereditary hemochromatosis, 5 mg

For `CC[C@H](C)[C@@H]1NC(=O)[C@@H](NC(=O)[C@@H](NC(=O)[C@@H]2CCCN2C(=O)[C@H](Cc2ccccc2)NC(=O)[C@H](Cc2c[nH]cn2)NC(=O)[C@@H](NC(=O)[C@@H](N)CC(=O)O)[C@@H](C)O)[C@@H](C)CC)CSSC[C@@H](C(=O)N[C@@H](CCCCN)C(=O)N[C@H](C(=O)O)[C@@H](C)O)NC(=O)[C@@H]2CSSC[C@@H]3NC(=O)[C@@H]4CSSC[C@H](NC(=O)[C@H](Cc5ccccc5)NC1=O)C(=O)N[C@@H](CSSC[C@H](NC(=O)[C@H](CCCCN)NC(=O)[C@H](CO)NC(=O)[C@H](CCCNC(=N)N)NC(=O)[C@H](Cc1c[nH]cn1)NC3=O)C(=O)NCC(=O)N[C@@H](CCSC)C(=O)N2)C(=O)NCC(=O)N4` [hepcidin], the NOAEL at 15 Day ([1]; both sexes, dog, in vivo, sc, dogs, single subcutaneous dose) was 5 mg/kg/day, the other adverse reactions ([1]; dogs, 5, 25 and 50 mg/kg single subcutaneous dose) was “hunched posture, soft feces, gross pathology finding of “thick,” and subcutaneous fibrosis, mixed cell infiltration, and cysts present at recovery period” and the “dose at which increased thickness in the administration site was observed” value ([1]; dogs, Day 4) was 50 mg/kg. The “dose at which increased thickness in the administration site was observed” value ([1]; dogs, Day 15) was no less than 25 mg/kg, the “dose at which cystic space at the administration site was found (microscopic)” value ([1]; dogs, females, Day 15) was no less than 25 mg/kg and the “dose at which fibrosis at the administration site was found (microscopic)” value ([1]; dogs, females, Day 15) was no less than 5 mg/kg. The “dose at which mixed cell infiltration in the administration site was found (microscopic)” value ([1]; dogs, Day 4) was no less than 25 mg/kg, the “dose at which mixed cell infiltration in the administration site was found (microscopic)” value ([1]; dogs, Day 15) was no less than 5 mg/kg and the “dose at which cystic space at the administration site was found (microscopic)” value ([1]; dogs, males, Day 15) was 50 mg/kg. The “dose at which fibrosis at the administration site was found (microscopic)” value ([1]; dogs, males, Day 15) was no less than 25 mg/kg, the “neutrophils and fibrinogen levels” value ([1]; dogs, up to Day 4, ≥25 mg/kg/day dose groups, not considered serious) was “temporary increases” and the adverse effects [2, 10] was “No unexpected adverse effects were observed”. For the same compound, the “food consumption and body weight gain” value [2, 10] was “non-adverse, dose-independent, reductions”, the injection site finding [2, 10] was “induration” and the “reticulocytes and iron concentration” value [2, 10] was “dose-dependent reversible decreases”. For the same compound, the “unsaturated iron binding capacity” value [2, 10] was “increased”, the “average serum iron levels compared to vehicle and pre-dose levels” value ([2]; Sprague Dawley rats, 5, 25 and 50 mg/kg SC, all doses) was “significantly decreased” and the “time post dose of lowest serum iron level” value ([2]; Sprague Dawley rats, 5, 25 and 50 mg/kg SC, all three doses) was 4 h. The NOAEL ([2]; both, Sprague Dawley, rat, in vivo, sc) was 50 mg/kg/day, the “average decrease of serum iron concentration over an 8 day period” value ([3]; both cohorts (cohort 1: 1 mg; cohort 2: 5 mg)) was 35-40% and the “efficacy in human subjects” value ([3]; doses of 1 mg and 5 mg hepcidin) was “display efficacy”. The “Serum iron concentration, maximum observed percentage change from baseline” value [3, 11] was −6%, the “Serum iron concentration, percentage change from baseline 8 days after administration of hepcidin” value [3, 11] was −4% and the “Serum iron concentration, maximum observed percentage change from baseline” value [3, 12] was −69%. For the same compound, the “Serum iron concentration, percentage change from baseline 8 days after administration of hepcidin” value [3, 12] was −69%, the “Serum iron concentration, maximum observed percentage change from baseline” value [3, 13] was −37% and the “Serum iron concentration, percentage change from baseline 8 days after administration of hepcidin” value [3, 13] was −37%. For the same compound, the “Serum iron concentration, maximum observed percentage change from baseline” value [3, 14] was −53%, the “Serum iron concentration, percentage change from baseline 8 days after administration of hepcidin” value [3, 14] was −40% and the “Serum iron concentration, maximum observed percentage change from baseline” value [3, 15] was −24%. For the same compound, the “Serum iron concentration, percentage change from baseline 8 days after administration of hepcidin” value [3, 15] was −24%, the “Serum iron concentration, maximum observed percentage change from baseline” value ([3]; patient 2004, hereditary hemochromatosis, 5 mg) was −35% and the “dose that may cause adverse effects in humans” value [4] was “about 200 mg”. The “TSAT at day eight versus baseline” value ([5]; all patients (1001, 1002, 1003 at 1 mg; 2001, 2002 at 5 mg)) was “percent decrease”, the “Transferrin saturation - percent change from baseline” value [5, 11] was −19% and the “Transferrin saturation - percent change from baseline” value [5, 12] was −62%. For the same compound, the “Transferrin saturation - percent change from baseline” value [5, 13] was −27%, the “Transferrin saturation - percent change from baseline” value [5, 14] was −26% and the “Transferrin saturation - percent change from baseline” value [5, 15] was −40%. The “time post dose at which serum iron levels returned to pre-dose levels” value ([6]; 5 mg subcutaneous) was 48 h, the “return of serum iron levels to pre-dose levels” value ([6]; 10 mg and 50 mg subcutaneous, 72 hours post dose) was “did not return to pre-dose levels” and the “effect on serum iron levels at 72 hours” value ([6]; 50 mg subcutaneous) was “still demonstrated an effect”. For the same compound, the serum iron levels ([6]; subcutaneous, all dose levels (1, 5, 10, 50 mg)) was “significant decrease”, the “time post dose of lowest serum iron concentrations” value ([6]; subcutaneous, all three doses) was 4 h and the lethargy ([6]; subcutaneous, any dose level) was “No lethargy was observed”. The “percent change in ferritin blood levels” value ([7]; patient 1001, sickle cell disease, 1 mg subcutaneous bolus) was −45%, the “percent change in ferritin blood levels” value ([7]; patient 1002, sickle cell disease, 1 mg subcutaneous bolus) was −61% and the “percent change in ferritin blood levels” value ([7]; patient 1003, hereditary hemochromatosis, normal baseline ferritin, 1 mg) was 25%. The “percent change in ferritin blood levels” value ([7]; patient 2001, hereditary hemochromatosis, normal baseline ferritin, 5 mg) was −19%, the “percent change in ferritin blood levels” value ([7]; patient 2002, hereditary hemochromatosis, normal baseline ferritin, 5 mg) was 18% and the “ferritin blood levels versus baseline” value ([7]; sickle cell disease patients 1001 and 1002 (high baseline ferritin), 1 mg subcutaneous bolus) was “lower”. For the same compound, the “decrease in serum iron levels compared to vehicle (average)” value ([8]; 4 hours post dose) was 40%, the “decrease in serum iron levels compared to vehicle (average)” value ([8]; 24 hours post dose) was 15% and the “serum iron levels compared to vehicle” value ([9]; mice, 50 μg and 100 μg subcutaneous, 24 hours post dose) was “elevated”. For the same compound, the “serum iron levels compared to vehicle” value ([9]; mice, 50, 100 and 200 μg subcutaneous, 4 hours post dose) was “significant decrease”, the “time post dose at which serum iron levels normalized” value ([9]; mice, subcutaneous) was 72 h and the mortality ([9]; mice, following the 4-hour blood collection, likely related to stress of blood collection) was “One mouse died”.
